Read-outs that look alike come from different tables or passages of the source. Positions of bridges follow the written chain, without caps; N, C: chain ends. Residues, ends and D or L forms follow the SMILES beside them. Chains are numbered I, II in the order given.
Tests used:
[1] = tested on: primary antibody production; experiment: Effect on the primary antibody production in newborn rats (haemagglutinin titre); format: in vivo, Wistar (LATI) rats; settings: 1 mg/kg i.p. within 12 hours after birth, haemagglutinin titre on day 7 following immunization with sheep erythrocytes
Procedure: This study is based on the phenomenon of agglutination. A specific antiserum adheres to the surface of the antigen forming large granules which settle rapidly (agglutinate).
Newborn Wistar (LATI) rats were intraperitoneally (i.p.) treated with an 1 mg/kg dose of the test substance within 12 hours after birth. On the 14th day, the animals were i.p. immunized by 0.5 ml of an 1% suspension of sheep erythrocytes. On day 7 following the immunization, blood was taken retroorbitally, after 30 minutes the sera were separated by centrifuging and the haemagglutinin titre was determined according to the method of Takatsy [Acta Microbiol. Acad. Sci. Hung. 3, 191 (1955)]. From the mixed sera (50 μl) of two rats, halving dilutions were prepared in 12 steps. Each sample was given 25 /ul of a 2% suspension of sheep erythroxytes The mixture was incubated at 37° C. for one hour to evaluate the agglutination. The data are summarized in Table 2 which show the suppressing (inhibitory) effect of the compounds on the primary antibody production as a percentage value in relation to the untreated animals. Immunostimulating substances show just the opposite effect in this test.

[2] = tested on: late hypersensitive (DTH) response; format: in vivo, CFLP (LATI) mice; settings: mice sensitized with oxazolone
Procedure: This test was carried out on male CFLP (LATI) mice weighing 25 to 30 g. At the beginning of the experiment, the mice were treated with a 3% solution of oxazolone in anhydrous ethanol by applying 20 μl of solution each on both ears and forepaws. […] The controls were treated only with saline. On day 10 of the experiment, 20 μl of an 2.5% olive oil solution of oxazolone were smeared on each ear of the animals. The thickness of the ears was twice measured, i.e. before and 24 hours after the administration of the antigen. The thickness was measured on both ears in the middle of the ear-lobes with an accuracy of 0.01 mm. The change was compared with the control group. The data concerning the suppression of the development of a DTH response are given as percentage values in Table 4.

resting macrophages = format: in vivo, CFLP (LATI) mice; settings: mice
Procedure: The phagocytating capacity of resting macrophage cells was investigated on mice [J. Immunopharmacol. 4, 265 (1982-1983)]. […] After bleeding the animals, their peritonea were washed with 8 ml of PBS buffer solution (phosphate buffered saline, pH=7.2) each containing 10 IU of heparin. The cell suspension washed out from the peritoneum was made free of the erythrocytes by shocking with distilled water, then washed 3 times with PBS buffer solution. The sedimentation between two washings was achieved by centrifuging at 1000 rpm for 5 minutes. The concentration of each cell suspension was adjusted to 10^6 cell/ml and the suspension was settled for 30 minutes in a Boyden-chamber at 37° C. in an atmosphere containing 5% of carbon dioxide. Over the macrophages adhered to the glass wall, opsonized yeast was layered. After removing the non-phagocytated particles, those incorporated by the macrophages were counted in each cell. In Table 3, the percentage of decrease in the count of phagocytated yeast cells is given in relation to the macrophages isolated from the untreated animals as control.

antibody-producing cells = experiment: Effect on the antibody-producing cells in newborn rats (plaque-forming cell count of splenocytes); format: in vivo, Wistar (LATI) rats; settings: 1 mg/kg i.p. within 12 hours of birth, immunized day 14 with sheep erythrocytes, splenocytes 7 days later, vs untreated control
Procedure: This investigation was carried out with splenocytes obtained from newborn rats according to the method of Canningham (Handbook of Experimental Immunology, Ed. D. M. Weir, Vol. 2., Blackwell, Oxford-London, page 285, 1978). Twelve Wistar (LATI) rats arising from a single litter were intraperitoneally (i.p.) treated with 7.5 μg of test substance in a dose of 1 mg/kg within 12 hours of their birth. On the 14th day after birth, the animals were i.p. immunized by 0.5 ml of an 1% suspension of sheep erythrocytes, then bled by decapitation after 7 days. From the splenocytes obtained from the animals, a homogeneous suspension was prepared using sheep erythrocyte suspension and complement which was then put into a chamber suitable for obtaining a monocellular layer. The chambers closed with paraffin were incubated at 37° C. for 45 minutes. Around the antibody-producing splenocytes, lytic areas, the so-called plaques, were formed. Under the effect of treatment with the suppressing substances, the number of the plaque-forming cells (PFC) was decreased. The data summarized in Table 1 illustrate this percentage decrease calculated on the basis of the cells obtained from the untreated control animals.

[3] = therapeutic dose does not significantly differ from the toxic one; cited from earlier work
[4] = 1 mg/kg i.p. on day 7, ear thickness 24 hours after antigen on day 10, vs saline control
[5] = 1 mg/kg s.c. daily for 7 days, count of phagocytated yeast cells vs untreated animals

| SMILES | Suppression of the DTH response, Suppression % [2, 4] [%] | Change in the phagocytating capacity of resting macrophages, Change % (resting macrophages; [5]) [%] | Suppression of the antibody production, Change % (number of plaque-forming cells) (antibody-producing cells) [%] | further results |
| --- | --- | --- | --- | --- |
| N=C(N)NCCC[C@H](N)C(=O)N[C@@H](CCCCN)C(=O)N[C@@H](CC(=O)O)C(=O)N[C@@H](CSSC[C@H](NC(=O)[C@H](CC(=O)O)NC(=O)[C@H](CCCCN)NC(=O)[C@@H](N)CCCNC(=N)N)C(N)=O)C(N)=O [(12)] (I: H-RKDC-NH2 / II: H-RKDC-NH2; disulfide I:4-II:4) | 35.3 | -40.1 |  | Effect on the primary antibody production, Change in relation to the untreated control % [1]: -10.7% |
| CC(C)C[C@H](NC(=O)[C@H](CCCCN)NC(=O)[C@H](CO)NC(=O)[C@@H](N)CCCCN)C(=O)O [(13), Lys-Ser-Lys-Leu] (H-KSKL-OH) | 28.2 |  |  |  |
| CC(C)C[C@H](NC(=O)[C@H](CCCCN)NC(=O)[C@@H](N)CO)C(=O)O [(14), Ser-Lys-Leu] (H-Ser-Lys-Leu-OH) | 22.7 | -14.0 |  |  |
| C[C@@H](O)[C@H](NC(=O)[C@H](CO)NC(=O)[C@H](CO)NC(=O)[C@@H](N)CO)C(=O)O [(15), Ser-Ser-Ser-Thr] (H-SSST-OH) | 18.0 |  |  |  |
| C[C@@H](O)[C@H](NC(=O)[C@H](CCC(=O)O)NC(=O)[C@@H](N)CCCCN)C(=O)O [(16), Lys-Glu-Thr] (H-Lys-Glu-Thr-OH) | 27.5 |  | -36.8 |  |
| C[C@@H](O)[C@H](NC(=O)[C@H](CCC(=O)O)NC(=O)[C@@H](NC(=O)[C@@H](N)CCCCN)[C@@H](C)O)C(=O)O [(17), Lys-Thr-Glu-Thr] (H-KTET-OH) | 35.5 | -17.5 | -23.2 |  |
| CC(C)C[C@H](NC(=O)[C@H](CCCCN)NC(=O)[C@@H]1CCCN1)C(=O)N[C@H](C(=O)O)[C@@H](C)O [(18), Pro-Lys-Leu-Thr] (H-PKLT-OH) |  | -11.7 | -19.4 |  |
| C[C@@H](O)[C@H](NC(=O)[C@H](CCCCN)NC(=O)[C@@H](N)CCCCN)C(=O)N[C@@H](CCC(=O)O)C(=O)O [(19), Lys-Lys-Thr-Glu] (H-KKTE-OH) |  | -18.6 | -22.9 | Effect on the primary antibody production, Change in relation to the untreated control % [1]: -10.8% |
| O=P1(N(CCCl)CCCl)NCCCO1 (stereo not drawn) [Cyclophosphamide, 2-[-bis(2-chloroethyl)amino]-tetrahydro-2H-1,3,2-oxazaphosphorine-2-oxide, reference compound] |  |  |  | therapeutic index [3]: below 10; Suppression of the DTH response, Suppression % ([2]; 150 mg/kg i.p. dose): 72%; Change in the phagocytating capacity of resting macrophages, Change % (resting macrophages; 150 mg/kg i.p. dose): -75.0% |
| Cn1cnc([N+](=O)[O-])c1Sc1ncnc2nc[nH]c12 [azathioprin, 6-(1-methyl-4-nitro-5-imidazolylthio)purine] |  |  |  | therapeutic index [3]: below 10 |
